Test results reported in patent US20150283239A1, “GRAPHENE DERIVATIVE-BASED COMPOSITION FOR DRUG DELIVERY AND PREPARATION METHOD THEREOF” (Research & Business Foundation SUNGKYUNKWAN UNIVERSITY, priority 2014, published 2015).

What was measured:
HCT116 tumors = assay: In vivo drug delivery, tumor volume in HCT116 xenograft mice; design: species or system Balb/c female nude mice; conditions: 14 days, intratumoral single dose 10 mg/kg
Protocol: Six (6) to seven (7)-week-old Balb/c female nude mice (weight of 21 g to 25 g) were purchased from Orient Bio Inc., (Seoul, Korea), and were maintained in a 12-hour light/12-hour darkness cycle (12:12LD) at a temperature of 22° C. to 24° C., in humidity of 40% to 60%, and with food and water ad libitum. HCT116 was trypsinized, washed twice with serum-free DMEM, and dispersed at a density of 1×10^7 cells/mL PBS. […] of the dispersed cells was subcutaneously injected into the right back region of the mice. After the tumor size reached about 150 mm^3, the mice were randomly divided into six (6) groups depending on differences in the minimum weight and tumor size. The mice were intratumorally injected with physiological saline, DGO, GQD, Cur, DGO-Cur, and GQD-Cur dispersions at a total dose of 10 mg/kg. The tumor size of each of the groups was measured by a caliper, and the tumor volume was calculated by using the following equation: tumor volume=ab^2×0.5236, where ‘a’ is the maximum diameter of tumor, and ‘b’ is the minimum diameter of tumor. Relative tumor volumes were calculated as V/V0 (V0 was the tumor volume when the treatment was initiated).
Experimental female nude mice bearing subcutaneous xenografts were divided into groups and intratumorally injected with a single dose of each of physiological saline, pure DGO and GQDs, free Cur, or DGO-Cur and GQD-Cur composites. […]

HCT116 cells = assay: In vitro cytotoxicity, MTT analysis; type: cell-based, Human; conditions: HCT116, 100 μg/mL, 24 hours
Protocol: Human colon cancer cells (HCT116) were maintained in a Dulbecco's modified Eagle medium (DMEM), and supplemented with 10% fetal bovine serum (FBS) and antibiotics (10,000 μg/mL streptomycin and 10,000 unit/mL penicillin) at 37° C. in a humidified atmosphere containing 5% CO2(v/v).
In vitro cytotoxicity was measured by using standard colorimetric 3-(4,5-dimethylthiazol-2-yl)-2,5-diphenyl tetrazolium bromide (MTT) analysis. For the MTT analysis, HCT116 cells were seeded in a 96-well cell-culture plate at 1×10^4/well, and cultured for 12 hours at 37° C. under 5% CO2. Thereafter, the HCT116 cells were cultured for 24 hours by using various concentrations ([…], 12.5, 25, 50, and 100 μg/mL) of GO, DGO, GQD, Cur, GO-Cur, DGO-Cur, and GQD-Cur. Next, 20 μl stock MTT (5 mg/mL) was added to each of the cells, and the cells were cultured under 5% CO2 at 37° C. for 4 hours. After the culture for additional 4 hours, the resulting formazan crystals were dissolved in dimethyl sulfoxide (DMED, 100 μl), and absorbance intensity was measured by a microplate reader at 570 nm. All the experiments were conducted in quadruplicate, and the relative cell viability (%) was expressed as a percentage relative to untreated control cells.

SMILES: COc1cc(/C=C/C(=O)CC(=O)/C=C/c2ccc(O)c(OC)c2)ccc1O [Cur, Curcumin]
- inhibition of tumor proliferation (HCT116 tumors): tumor proliferation was initially inhibited to some extent
- cancer cells dead (HCT116 cells): about 70%
